Test [1] concerns the target T1, GPR164 (Or51e1, Olfr558) (Mus musculus, UniProt Q8VGZ7).
T1 sequence (Q8VGZ7 1-317): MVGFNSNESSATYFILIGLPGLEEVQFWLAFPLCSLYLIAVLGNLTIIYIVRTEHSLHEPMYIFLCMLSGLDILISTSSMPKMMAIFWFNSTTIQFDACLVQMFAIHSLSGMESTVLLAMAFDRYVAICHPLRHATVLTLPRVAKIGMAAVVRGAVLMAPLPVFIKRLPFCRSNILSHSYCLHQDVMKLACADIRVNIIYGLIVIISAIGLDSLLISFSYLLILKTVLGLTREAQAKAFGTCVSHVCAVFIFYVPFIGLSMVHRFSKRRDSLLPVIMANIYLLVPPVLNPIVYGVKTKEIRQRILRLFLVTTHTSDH
The test can be described thus: cAMP EIA in Or51e1-overexpressing HEK293 cells, single concentration […]. It is filed as cell-based. On the set-up: HA-tagged Or51e1 in HEK293 cells, co-transfected with RTP1S or RTP4.

In test [2] the target is T1, GPR164 (Or51e1, Olfr558). Described as above. It counts as cell-based. On the set-up: HA-tagged Or51e1 in HEK293 cells, active only when co-transfected with RTP1S.

In the case of `CCCC(=O)O` [C4, butyrate], the “intracellular cAMP response” value in test [1] is “intracellular cAMP levels were upregulated by the treatment with butyrate or valerate (Fig. 1B)”.

On to `CCCCC(=O)O` [C5, valerate], for which, in test [1], the “intracellular cAMP response” value is “only SCFAs (butyrate and valerate) activated GPR164 in cells expressing RTP4 (Fig. 1B)”.

On to `CCCCCCCCCC(=O)O` [C10, decanoate], for which the “cAMP EIA in Or51e1-overexpressing HEK293 cells, single concentration 1 mM” value in test [2] is “GPR164 was activated by the stimulation with butyrate or decanoate when cells were co-transfected with both Or51e1 and RTP1S”.

For the origin of these results see publication PMC12678807, “The free fatty acid receptor GPR164 maintains intestinal homeostasis and barrier function” (EMBO Reports, 2025).
